As a reminder, the IC50 is the concentration at which inhibition is half-maximal. As usually defined, the MIC is the least concentration at which growth counts as inhibited. Low readings indicate a more susceptible organism, high ones a less susceptible organism. Broadly, the ILS is the gain in survival time of treated over control animals, in per cent.

In brackets after ≈: the same amount, converted by molar mass. Activity calls are given as the source filed them. The calls are words filed in the database; no cut-off is given here.

The subject of one experiment is HepG2. Put plainly: Cytotoxicity against human HepG2 cells assessed as decrease in cell viability after 48 hrs by MTT assay. Conditions: HepG2, 48 h. It counts as functional, cell-based. Background: Tetrazolium assays rely on reduction of a dye to a coloured formazan, in cell work by metabolically active cells.
In another experiment the test system is MCF7. The experiment is described as follows: Cytotoxicity against human MCF7 cells assessed as decrease in cell viability after 48 hrs by MTT assay. In kind it is functional, cell-based. Conditions: MCF7, 48 h.
Experiment [1] concerns Chromobacterium violaceum. Put plainly: Inhibition of quorum sensing system in Chromobacterium violaceum ATCC 12472 assessed as diameter of violacein pigment inhibition at 5 mg/ml after 48 hrs.
For another experiment, the system named is HCT-116. Put plainly: Cytotoxicity against human HCT116 cells assessed as decrease in cell viability after 48 hrs by MTT assay. In kind it is functional, cell-based. The settings on record: HCT-116, 48 h.
For another experiment, the system named is Escherichia coli. The experiment is described as follows: Antibacterial activity against Escherichia coli ATCC 12435 after 24 hrs by two-fold serial dilution method. The settings on record: ATCC 12435, 24 h. It counts as functional.
The subject of the next experiment is Staphylococcus aureus. The experiment is described as follows: Antibacterial activity against Staphylococcus aureus ATCC 29213 after 24 hrs by two-fold serial dilution method. It counts as functional. The settings on record: ATCC 29213, 24 h.
The subject of a further experiment is Aspergillus fumigatus. The experiment is described as follows: Antifungal activity against Aspergillus fumigatus 293 after 48 hrs by two-fold serial dilution method. In kind it is functional. Conditions: Af293, 48 h.
A further experiment deals with Candida albicans. The experiment is described as follows: Antifungal activity against Candida albicans after 48 hrs by two-fold serial dilution method. In kind it is functional.
The next experiment relates to Bacillus cereus. Put plainly: Antibacterial activity against Bacillus cereus UW 85 after 24 hrs by two-fold serial dilution method. It counts as functional. The settings on record: UW 85, 24 h.
The nature of experiment [2]: Displacement of methyl green from DNA (unknown origin) incubated in dark for 24 hrs by colorimetric method.
Experiment [3] deals with Ehrlich. The experiment is described as follows: Antitumor activity against mouse EAC allografted in Swiss mouse assessed as decrease in viable tumor cell count at 0.5 mg administered 9 days by trypan blue staining method. In kind it is functional.
Experiment [4] deals with Ehrlich. The experiment is described as follows: Antitumor activity against mouse EAC allografted in Swiss mouse assessed as WBC count in blood at 0.5 mg administered 9 days (reference value: 23.96 10^3/mm3). In kind it is functional.
Experiment [5] has as its system Ehrlich. The experiment is described as follows: Antitumor activity against mouse EAC allografted in Swiss mouse assessed as tumor volume at 0.5 mg administered 9 days (reference value: 9.85 ml). In kind it is functional.
For experiment [6], the system named is Ehrlich. Put plainly: Antitumor activity against mouse EAC allografted in Swiss mouse assessed as hemoglobin count in blood at 0.5 mg administered 9 days (reference value: 8.73 g/dl). It counts as functional.
In experiment [7] the test system is Ehrlich. Put plainly: Antitumor activity against mouse EAC allografted in Swiss mouse assessed as mean mouse survival time at 0.5 mg administered 9 days (reference value: 14.5 days). In kind it is functional.
The subject of the next experiment is WI-38. Put plainly: Cytotoxicity against human W138 cells assessed as decrease in cell viability after 48 hrs by MTT assay. The settings on record: WI-38, 48 h. It counts as cell-based.
The subject of experiment [8] is Ehrlich. The experiment is described as follows: Antitumor activity against mouse EAC allografted in Swiss mouse assessed as RBC count in blood at 0.5 mg administered 9 days (reference value: 3.69 10^6/mm3). It counts as functional.
Experiment [9] concerns Ehrlich. Put plainly: Antitumor activity against mouse EAC allografted in Swiss mouse assessed as increase in mouse life span at 0.5 mg administered 9 days relative to control. In kind it is functional.

As for `NC(=S)NNC(=O)CSCc1nc2cc([N+](=O)[O-])ccc2[nH]1`, the IC50 with HepG2 stood at 7.05 µM; in the experiment on MCF7, 7.53 µM; with HCT-116, 4.71 µM; in experiment [2], 66.2 µM. In experiment [1], the Activity was found to be 11 mm. Moreover, the MIC against Escherichia coli is over 2500 µg/mL; in the experiment on Staphylococcus aureus it was 918 µM; in the experiment on Aspergillus fumigatus it was 1840 µM (≈ 625 µg/mL); against Candida albicans, 459 µM (≈ 156 µg/mL); against Bacillus cereus it was 3670 µM.
Turning to `O=[N+]([O-])c1ccc2[nH]c(CSCc3nc4cc([N+](=O)[O-])ccc4[nH]3)nc2c1`, in the experiment on Ehrlich [3], the outcome was Active. Besides, the Activity in the experiment with Ehrlich [4] was 7.23 ×10³ /mm3; in the experiment with Ehrlich [5], 2.22 mL; in experiment [1], 11 mm; in the experiment on Ehrlich [6], 13.18 g/dL; in the experiment on Ehrlich [8], 5.45 ×10⁶ /mm3. Moreover, the IC50 with HepG2 was 2.25 µM; in the experiment with MCF7, 1.74 µM; with HCT-116 it was 2.41 µM; in the experiment with WI-38 it was 25.4 µM; in experiment [2] it was 37.1 µM. Moreover, the MIC against Escherichia coli was found to be 1630 µM; in the experiment on Staphylococcus aureus, 406 µM; in the experiment on Aspergillus fumigatus, 406 µM (≈ 156 µg/mL); against Candida albicans, 406 µM (≈ 156 µg/mL); in the experiment on Bacillus cereus it was 813 µM. Further, the MST in the experiment with Ehrlich [7] was found to be 47 days. Further, the ILS in the experiment with Ehrlich [9] came to 224.14%.
Regarding `O=C(CSCc1nc2cc([N+](=O)[O-])ccc2[nH]1)c1ccc(Cl)cc1`, in the experiment with Ehrlich [3], the result was Active. Moreover, the Activity with Ehrlich [4] was 9.1 ×10³ /mm3; with Ehrlich [5], 2.83 mL; in [1], under 2 mm; in the experiment on Ehrlich [6], 12.32 g/dL; with Ehrlich [8], 4.87 ×10⁶ /mm3. Moreover, the IC50 in the experiment on HepG2 came to 2.65 µM; in the experiment with MCF7, 2.8 µM; with HCT-116, 2.23 µM; in the experiment on WI-38, 33.8 µM; in [2] it was 62.8 µM. In addition, the MIC in the experiment with Escherichia coli was over 2500 µg/mL; against Staphylococcus aureus, 864 µM; against Aspergillus fumigatus, 3450 µM (≈ 1250 µg/mL); against Candida albicans it was 864 µM (≈ 312 µg/mL); against Bacillus cereus, 6910 µM. The MST with Ehrlich [7] came out at 39.2 days. The ILS in the experiment with Ehrlich [9] was 170.34%.
Consider `NC(=O)CSCc1nc2cc([N+](=O)[O-])ccc2[nH]1`, for which the IC50 with HepG2 came to 26.9 µM; with MCF7, 19.7 µM; in the experiment on HCT-116 it was 17.2 µM; in experiment [2], 41.3 µM. Further, in experiment [1], the Activity was 9 mm. The MIC in the experiment on Escherichia coli is 587 µM; with Staphylococcus aureus, 147 µM; in the experiment on Aspergillus fumigatus, 293 µM (≈ 78.1 µg/mL); in the experiment on Candida albicans it was 147 µM (≈ 39.1 µg/mL); against Bacillus cereus it was 293 µM.
In the case of `NNC(=O)CSCc1nc2cc([N+](=O)[O-])ccc2[nH]1`, the IC50 with HepG2 was 18.6 µM; in the experiment with MCF7 it was 13.2 µM; in the experiment with HCT-116, 5.33 µM; in [2] it was 87.2 µM. The Activity in [1] was under 2 mm. For the same compound, the MIC with Escherichia coli was over 2500 µg/mL; against Staphylococcus aureus it was over 2500 µg/mL; in the experiment on Aspergillus fumigatus, 4440 µM (≈ 1250 µg/mL); against Candida albicans, 1110 µM (≈ 312 µg/mL); against Bacillus cereus, over 2500 µg/mL.
In the case of `O=c1[nH]cc(F)c(=O)[nH]1` [FLUOROURACIL], the Activity with Ehrlich [4] was 8.86 ×10³ /mm3; in the experiment on Ehrlich [5], 1.6 mL; in the experiment on Ehrlich [6], 12.96 g/dL; with Ehrlich [8], 5.21 ×10⁶ /mm3. Besides, the IC50 with HepG2 was 5.3 µM; with MCF7 it was 4.3 µM; in the experiment on HCT-116, 4 µM; with WI-38, 5.73 µM. Moreover, the MST in the experiment on Ehrlich [7] came to 49 days. Besides, the ILS in the experiment with Ehrlich [9] stood at 237.93%.
For `O=C(CSCc1nc2cc([N+](=O)[O-])ccc2[nH]1)NNC(=S)Nc1ccccc1`, the IC50 was over 100 µM in the experiment on HepG2, over 100 µM with MCF7, 29.2 µM in the experiment on HCT-116 and 52.3 µM in [2]. Besides, the Activity in experiment [1] was under 2 mm. Also, the MIC in the experiment on Escherichia coli was over 2500 µg/mL; in the experiment on Staphylococcus aureus, over 2500 µg/mL; with Aspergillus fumigatus, 750 µM (≈ 312 µg/mL); with Candida albicans, 375 µM (≈ 156 µg/mL); against Bacillus cereus it was over 2500 µg/mL.
On to `O=C(CSCc1nc2cc([N+](=O)[O-])ccc2[nH]1)c1ccc(Br)cc1`, for which the outcome with Ehrlich [3] was Active. For the same compound, the Activity was 7.41 ×10³ /mm3 in the experiment with Ehrlich [4]; 2.41 mL in the experiment with Ehrlich [5]; under 2 mm in experiment [1]; 12.92 g/dL in the experiment with Ehrlich [6]; 5.14 ×10⁶ /mm3 in the experiment on Ehrlich [8]. Also, the IC50 was 2.01 µM in the experiment on HepG2; 1.55 µM with MCF7; 1.78 µM in the experiment on HCT-116; 31.5 µM in the experiment with WI-38; 34.6 µM in experiment [2]. In addition, the MIC with Escherichia coli was over 2500 µg/mL; in the experiment on Staphylococcus aureus, 192 µM; in the experiment with Aspergillus fumigatus, 385 µM (≈ 156 µg/mL); in the experiment on Candida albicans, 385 µM (≈ 156 µg/mL); in the experiment with Bacillus cereus, 769 µM. Moreover, the MST in the experiment with Ehrlich [7] was 45.3 days. For the same compound, in the experiment with Ehrlich [9], the ILS stood at 212.42%.

For the origin of these results see ChEMBL document CHEMBL4118070, “Synthesis, antimicrobial, antiquorum-sensing and antitumor activities of new benzimidazole analogs” (Eur J Med Chem, 2017).
